The values below come from publication PMC7770833, “Design, Synthesis, and Biological Evaluation of a Series of Oxazolone Carboxamides as a Novel Class of Acid Ceramidase Inhibitors” (Journal of Medicinal Chemistry, 2020).

≈ marks a conversion by molar mass, not a printed value. Where two headings read alike, the source gives them in different places.

Data set [1] concerns the target human ceramidase (hCDase). As to conditions: in SKOV3 cells; cited from earlier work.
Data set [2] can be described thus: Aqueous kinetic solubility assay. As to conditions: PBS pH 7.4. The class given is physicochemical. The method, then: The aqueous kinetic solubility was determined from a 10 mM CH3CN stock solution of the test compound in PBS at pH 7.4. The study was performed by the incubation of an aliquot of 10 mM CH3CN stock solution in PBS (pH 7.4) at a target concentration of 250 μM. The incubation was carried out under shaking at 25 °C for 1 h, followed by centrifugation at 21 100 × g for 30 min. The supernatant was analyzed by UPLC/MS for the quantification of the dissolved compound (in μM) by UV at a specific wavelength (215 nm). […] The UPLC/MS analyses were performed on a Waters Acquity UPLC/MS system consisting of SQDMS equipped with an ESI interface and a PDA detector. The PDA range was 210–400 nm. ESI in positive mode was used in the mass scan range 100–650 Da. The analyses were run on an Acquity UPLC BEH C18 column (50 × 2.1 mm ID, particle size 1.7 μm) with a VanGuard BEH C18 pre-column (5 × 2.1 mm ID, particle size 1.7 μm), using 10 mM NH4OAc in H2O at pH 5 adjusted with AcOH (A) and 10 mM NH4OAc in CH3CN/H2O (95:5) at pH 5 (B) as the mobile phase. The values are the mean of at least two independent experiments performed in two technical replicates.

In data set [3] the test system is AC. As to conditions: HaCaT cell lysates; cited from earlier work.
The test system of data set [4] is AC. As to conditions: HL-60 cell lysates; cited from earlier work.

As usually defined, the IC50 is the concentration that gives 50% inhibition. As for `COc1ccc(/C=C/C(=O)c2c(-c3ccccc3)c3cc(C)ccc3[nH]c2=O)cc1` [Ceranib-1], the IC50 in data set [1] is 55 µM.

Usually solubility stands for the concentration that dissolves in the medium under given conditions. Read a low solubility as little dissolved substance. Consider `CN1CCC(c2cn(C(=O)NCCCCc3ccccc3)c(=O)o2)CC1` [Compound 12y, 5-(1-Methyl-4-piperidyl)-2-oxo-N-(4-phenylbutyl)oxazole-3-carboxamide], for which the solubility at 1 h in data set [2] turned out to be 248 µM (≈ 88.6 µg/mL).

Consider `CCCCCCCCCCCCCC(=O)N[C@H](CO)[C@H](O)c1ccc([N+](=O)[O-])cc1` [Compound B13], for which, in the data set with AC [3], the half-inhibitory concentration (IC50) is around 10 µM.

Take `CCCCCCCCCCCCCC(=O)N[C@H](C)[C@@H](O)c1ccccc1` [D-e-MAPP, D-erithro-2-(N-myristoylamino)-1-phenyl-1-propanol]: the IC50 with AC [4] was above 500 µM.
